Source: the NIST ThermoML archive (doi:10.1016/j.jct.2014.11.007)
± gives the expanded uncertainty stated by the source.

Assay: mn = molality of the nth substance listed, in mol/kg
Details: 100 kPa, Liquid; for speed of sound: Frequency=3 MHz, Sing-around technique in a fixed-path interferometer; for mass density: Vibrating tube method

O=C([O-])Cc1ccccc1Nc1c(Cl)cccc1Cl.[Na+] [sodium diclofenac] + O
Details	mass density, 293.15 K [kg/m3]	mass density, 298.15 K [kg/m3]	mass density, 303.15 K [kg/m3]	mass density, 308.15 K [kg/m3]	mass density, 313.15 K [kg/m3]	speed of sound, 293.15 K [m/s]	speed of sound, 298.15 K [m/s]	speed of sound, 303.15 K [m/s]	speed of sound, 308.15 K [m/s]	speed of sound, 313.15 K [m/s]
m1 = 0.00165	998.454 ± 0.2	997.297 ± 0.2	995.899 ± 0.2	994.285 ± 0.2	992.465 ± 0.2	1483.5 ± 1.5	1497.6 ± 1.5	1509.9 ± 1.5	1520.6 ± 1.5	1529.6 ± 1.5
m1 = 0.00255	998.563 ± 0.2	997.404 ± 0.2	996.005 ± 0.2	994.389 ± 0.2	992.569 ± 0.2	1483.7 ± 1.5	1497.7 ± 1.5	1510 ± 1.5	1520.7 ± 1.5	1529.7 ± 1.5
m1 = 0.0027	998.582 ± 0.2	997.423 ± 0.2	996.023 ± 0.2	994.407 ± 0.2	992.587 ± 0.2	1483.7 ± 1.5	1497.7 ± 1.5	1510 ± 1.5	1520.7 ± 1.5	1529.7 ± 1.5
m1 = 0.00314	998.638 ± 0.2	997.477 ± 0.2	996.078 ± 0.2	994.461 ± 0.2	992.64 ± 0.2	1483.7 ± 1.5	1497.8 ± 1.5	1510.1 ± 1.5	1520.7 ± 1.5	1529.8 ± 1.5
m1 = 0.00352	998.687 ± 0.2	997.527 ± 0.2	996.125 ± 0.2	994.508 ± 0.2	992.687 ± 0.2	1483.8 ± 1.5	1497.8 ± 1.5	1510.1 ± 1.5	1520.8 ± 1.5	1529.8 ± 1.5
m1 = 0.00413	998.769 ± 0.2	997.607 ± 0.2	996.205 ± 0.2	994.588 ± 0.2	992.767 ± 0.2	1483.9 ± 1.5	1497.9 ± 1.5	1510.2 ± 1.5	1520.8 ± 1.5	1529.8 ± 1.5
m1 = 0.00504	998.896 ± 0.2	997.733 ± 0.2	996.33 ± 0.2	994.71 ± 0.2	992.886 ± 0.2	1484 ± 1.5	1498 ± 1.5	1510.3 ± 1.5	1520.9 ± 1.5	1529.9 ± 1.5
m1 = 0.00604	999.044 ± 0.2	997.88 ± 0.2	996.477 ± 0.2	994.853 ± 0.2	993.027 ± 0.2	1484.1 ± 1.5	1498.1 ± 1.5	1510.4 ± 1.5	1521 ± 1.5	1530 ± 1.5
m1 = 0.00698	999.192 ± 0.2	998.027 ± 0.2	996.618 ± 0.2	994.995 ± 0.2	993.169 ± 0.2	1484.2 ± 1.5	1498.2 ± 1.5	1510.5 ± 1.5	1521.1 ± 1.5	1530.1 ± 1.5
m1 = 0.00742	999.257 ± 0.2	998.095 ± 0.2	996.689 ± 0.2	995.064 ± 0.2	993.238 ± 0.2	1484.3 ± 1.5	1498.3 ± 1.5	1510.6 ± 1.5	1521.1 ± 1.5	1530.1 ± 1.5
